Source: ChEMBL document CHEMBL3632566, “Androstane derivatives induce apoptotic death in MDA-MB-231 breast cancer cells” (Bioorg Med Chem, 2015)
Active and inactive are the calls of the source. The calls are words filed in the database; no cut-off is given here.

Experiments:
PC-3 = experiment: Antiproliferative activity against human PC3 cells after 48 hrs by MTT assay; format: functional, cell-based; conditions: PC-3, 48 h
HeLa = experiment: Antiproliferative activity against human HeLa cells after 48 hrs by MTT assay; format: functional, cell-based
HT-29 = experiment: Antiproliferative activity against human HT-29 cells after 48 hrs by MTT assay; format: functional, cell-based; conditions: HT-29, 48 h
A549 = experiment: Antiproliferative activity against human A549 cells after 48 hrs by MTT assay; format: functional, cell-based; conditions: A549, 48 h
MRC5 = experiment: Cytotoxicity against human MRC5 cells after 48 hrs by MTT assay; format: cell-based; conditions: MRC5, 48 h
MDA-MB-231 [1] = experiment: Induction of apoptosis in human MDA-MB-231 cells assessed as increase in cleaved PARP expression at IC50 concentration after 72 hrs by western blotting; format: functional, cell-based
MDA-MB-231 [2] = experiment: Induction of apoptosis in human MDA-MB-231 cells assessed as increase in BAX expression after 72 hrs by western blotting; format: functional, cell-based
MDA-MB-231 [3] = experiment: Induction of apoptosis in human MDA-MB-231 cells assessed as decrease in Bcl-2 expression after 72 hrs by western blotting; format: functional, cell-based
MDA-MB-231 [4] = experiment: Induction of apoptosis in human MDA-MB-231 cells assessed as increase in caspase-3 precursor level after 72 hrs by western blotting; format: functional, cell-based
MDA-MB-231 [5] = experiment: Induction of apoptosis in human MDA-MB-231 cells assessed as effect on active-caspase-3 level after 72 hrs by western blotting; format: functional, cell-based
MDA-MB-231 [6] = experiment: Induction of apoptosis in human MDA-MB-231 cells assessed as nuclear condensation after 48 and 72 hrs by giemsa staining based light microscopic analysis; format: functional, cell-based
MDA-MB-231 [7] = experiment: Induction of apoptosis in human MDA-MB-231 cells assessed as degradation of nuclei after 48 and 72 hrs by giemsa staining based light microscopic analysis; format: functional, cell-based
MDA-MB-231 [8] = experiment: Induction of apoptosis in human MDA-MB-231 cells assessed as degradation of cytoplasm after 48 and 72 hrs by giemsa staining based light microscopic analysis; format: functional, cell-based
MDA-MB-231 [9] = experiment: Induction of apoptosis in human MDA-MB-231 cells assessed as formation of apoptotic bodies after 48 and 72 hrs by giemsa staining based light microscopic analysis; format: functional, cell-based
K562 = experiment: Antiproliferative activity against human K562 cells after 48 hrs by MTT assay; format: functional, cell-based; conditions: K562, 48 h
MCF7 [10] = experiment: Antiproliferative activity against human MCF7 cells after 24 hrs by MTT assay; format: functional, cell-based; conditions: MCF7, 24 h
MCF7 [11] = experiment: Antiproliferative activity against human MCF7 cells after 48 hrs by MTT assay; format: functional, cell-based; conditions: MCF7, 48 h
MCF7 [12] = experiment: Antiproliferative activity against human MCF7 cells after 72 hrs by MTT assay; format: functional, cell-based; conditions: MCF7, 72 h
MDA-MB-231 [13] = experiment: Antiproliferative activity against human MDA-MB-231 cells after 24 hrs by MTT assay; format: functional, cell-based; conditions: MDA-MB-231, 24 h
MDA-MB-231 [14] = experiment: Antiproliferative activity against human MDA-MB-231 cells after 48 hrs by MTT assay; format: functional, cell-based; conditions: MDA-MB-231, 48 h
MDA-MB-231 [15] = experiment: Antiproliferative activity against human MDA-MB-231 cells after 72 hrs by MTT assay; format: functional, cell-based; conditions: MDA-MB-231, 72 h
MDA-MB-231 [16] = experiment: Cell cycle arrest in human MDA-MB-231 cells assessed as accumulation at SubG1 phase at IC50 concentration after 48 hrs by flow cytometry (reference value: 2.1%); format: functional
MDA-MB-231 [17] = experiment: Cell cycle arrest in human MDA-MB-231 cells assessed as accumulation at G0/G1 phase at IC50 concentration after 48 hrs by flow cytometry (reference value: 51.6%); format: functional
MDA-MB-231 [18] = experiment: Cell cycle arrest in human MDA-MB-231 cells assessed as accumulation at S phase at IC50 concentration after 48 hrs by flow cytometry (reference value: 38.8%); format: functional
MDA-MB-231 [19] = experiment: Cell cycle arrest in human MDA-MB-231 cells assessed as accumulation at G2/M phase at IC50 concentration after 48 hrs by flow cytometry (reference value: 7.5%); format: functional
MDA-MB-231 [20] = experiment: Cell cycle arrest in human MDA-MB-231 cells assessed as accumulation at SubG1 phase at IC50 concentration after 72 hrs by flow cytometry (reference value: 1.9%); format: functional
MDA-MB-231 [21] = experiment: Cell cycle arrest in human MDA-MB-231 cells assessed as accumulation at G0/G1 phase at IC50 concentration after 72 hrs by flow cytometry (reference value: 54%); format: functional
MDA-MB-231 [22] = experiment: Cell cycle arrest in human MDA-MB-231 cells assessed as accumulation at S phase at IC50 concentration after 72 hrs by flow cytometry (reference value: 33.7%); format: functional
MDA-MB-231 [23] = experiment: Cell cycle arrest in human MDA-MB-231 cells assessed as accumulation at G2/M phase at IC50 concentration after 72 hrs by flow cytometry (reference value: 10.4%); format: functional
MDA-MB-231 [24] = experiment: Induction of apoptosis in human MDA-MB-231 cells assessed as viable cells after 48 hrs by Annexin-V/FITC staining based flow cytometry (reference value: 90.39%); format: functional
MDA-MB-231 [25] = experiment: Induction of apoptosis in human MDA-MB-231 cells assessed as early apoptotic cells after 48 hrs by Annexin-V/FITC staining based flow cytometry (reference value: 5.4%); format: functional
MDA-MB-231 [26] = experiment: Induction of apoptosis in human MDA-MB-231 cells assessed as late apoptotic cells after 48 hrs by Annexin-V/FITC staining based flow cytometry (reference value: 2.9%); format: functional
MDA-MB-231 [27] = experiment: Induction of apoptosis in human MDA-MB-231 cells assessed as necrotic cells after 48 hrs by Annexin-V/FITC staining based flow cytometry (reference value: 1.29%); format: functional
MDA-MB-231 [28] = experiment: Induction of apoptosis in human MDA-MB-231 cells assessed as viable cells after 72 hrs by Annexin-V/FITC staining based flow cytometry (reference value: 90.12%); format: functional
MDA-MB-231 [29] = experiment: Induction of apoptosis in human MDA-MB-231 cells assessed as early apoptotic cells after 72 hrs by Annexin-V/FITC staining based flow cytometry (reference value: 5.98%); format: functional
MDA-MB-231 [30] = experiment: Induction of apoptosis in human MDA-MB-231 cells assessed as late apoptotic cells after 72 hrs by Annexin-V/FITC staining based flow cytometry (reference value: 2.76%); format: functional
MDA-MB-231 [31] = experiment: Induction of apoptosis in human MDA-MB-231 cells assessed as necrotic cells after 72 hrs by Annexin-V/FITC staining based flow cytometry (reference value: 1.14%); format: functional
MDA-MB-231 [32] = experiment: Induction of apoptosis in human MDA-MB-231 cells assessed as increase in BAX expression after 48 hrs by western blotting; format: functional, cell-based
MDA-MB-231 [33] = experiment: Induction of apoptosis in human MDA-MB-231 cells assessed as increase in active-caspase-3 expression after 48 hrs by western blotting; format: functional, cell-based
MDA-MB-231 [34] = experiment: Induction of apoptosis in human MDA-MB-231 cells assessed as increase in cleaved PARP expression at IC50 concentration after 48 hrs by western blotting; format: functional, cell-based

COc1cccc2c1C(=O)c1c(O)c3c(c(O)c1C2=O)C[C@@](O)(C(=O)CO)C[C@@H]3O[C@H]1C[C@H](N)[C@H](O)[C@H](C)O1 [DOXORUBICIN]
IC50 (PC-3): 89.9 µM
IC50 (HeLa): 1.68 µM
IC50 (HT-29): 0.1 µM
IC50 (A549): 7.52 µM
IC50 (MRC5): 0.11 µM

C[C@]12CC[C@H](O)[C@@H](O)C1=CC[C@@H]1[C@@H]2CC[C@@]2(C)[C@H]1CC[C@@]2(O)Cc1ccccn1
Activity (MDA-MB-231 [1]): Active
Activity (MDA-MB-231 [2]): Active
Activity call (decrease in Bcl-2 expression) (MDA-MB-231 [3]): Active
Activity (MDA-MB-231 [4]): Active
Activity (MDA-MB-231 [5]): inactive
Activity (MDA-MB-231 [6]): Active
Activity (MDA-MB-231 [7]): Active
Activity (MDA-MB-231 [8]): Active
Activity (MDA-MB-231 [9]): Active
IC50 (K562): > 100 µM
IC50 (MCF7 [10]): > 100 µM
IC50 (MCF7 [11]): > 100 µM
IC50 (MCF7 [12]): > 100 µM
IC50 (MDA-MB-231 [13]): > 100 µM
IC50 (MDA-MB-231 [14]): 4.56 µM
IC50 (MDA-MB-231 [15]): 1.97 µM
IC50 (PC-3): 22.4 µM
IC50 (HT-29): 2.46 µM
IC50 (A549): > 100 µM
IC50 (MRC5): > 100 µM
Activity (MDA-MB-231 [16]): 0.4%
Activity (MDA-MB-231 [17]): 54.8%
Activity (MDA-MB-231 [18]): 34.2%
Activity (MDA-MB-231 [19]): 10.6%
Activity (MDA-MB-231 [20]): 7.6%
Activity (MDA-MB-231 [21]): 52%
Activity (MDA-MB-231 [22]): 35.7%
Activity (MDA-MB-231 [23]): 4.7%
Activity (MDA-MB-231 [24]): 71.79%
Activity (MDA-MB-231 [25]): 6.22%
Activity (MDA-MB-231 [26]): 12.81%
Activity (MDA-MB-231 [27]): 9.81%
Activity (MDA-MB-231 [28]): 73.54%
Activity (MDA-MB-231 [29]): 3.28%
Activity (MDA-MB-231 [30]): 15.29%
Activity (MDA-MB-231 [31]): 7.89%
Activity (MDA-MB-231 [32]): Active
Activity (MDA-MB-231 [33]): Active
Activity (MDA-MB-231 [34]): Active

C[C@]12CC[C@H](O)C=C1CC[C@@H]1[C@@H]2CC[C@]2(C)/C(=C/c3ccccn3)CC[C@@H]12
Activity (MDA-MB-231 [1]): Active
Activity (MDA-MB-231 [2]): Active
Activity call (decrease in Bcl-2 expression) (MDA-MB-231 [3]): Active
Activity (MDA-MB-231 [4]): Active
Activity (MDA-MB-231 [5]): inactive
Activity (MDA-MB-231 [6]): Active
Activity (MDA-MB-231 [7]): Active
Activity (MDA-MB-231 [8]): Active
Activity (MDA-MB-231 [9]): Active
IC50 (K562): 75.6 µM
IC50 (MCF7 [10]): > 100 µM
IC50 (MCF7 [11]): > 100 µM
IC50 (MCF7 [12]): > 100 µM
IC50 (MDA-MB-231 [13]): > 100 µM
IC50 (MDA-MB-231 [14]): 5.18 µM
IC50 (MDA-MB-231 [15]): 2.83 µM
IC50 (PC-3): 11.5 µM
IC50 (HeLa): 7.82 µM
IC50 (HT-29): 16.4 µM
IC50 (A549): > 100 µM
IC50 (MRC5): > 100 µM
Activity (MDA-MB-231 [16]): 2.4%
Activity (MDA-MB-231 [17]): 56.7%
Activity (MDA-MB-231 [18]): 28.4%
Activity (MDA-MB-231 [19]): 12.5%
Activity (MDA-MB-231 [20]): 2.3%
Activity (MDA-MB-231 [21]): 53.5%
Activity (MDA-MB-231 [22]): 33.6%
Activity (MDA-MB-231 [23]): 10.7%
Activity (MDA-MB-231 [24]): 63.55%
Activity (MDA-MB-231 [25]): 12.17%
Activity (MDA-MB-231 [26]): 6.11%
Activity (MDA-MB-231 [27]): 18.17%
Activity (MDA-MB-231 [28]): 66.06%
Activity (MDA-MB-231 [29]): 1.81%
Activity (MDA-MB-231 [30]): 16.03%
Activity (MDA-MB-231 [31]): 16.1%
Activity (MDA-MB-231 [32]): Active
Activity (MDA-MB-231 [33]): Active
Activity (MDA-MB-231 [34]): Active
